Several values for one entry are separate records, joined by “and”; a condition that tells them apart may be missing. Equal entries are not always repeated. Structures can show the parent of a compound that is named as a salt. Where two headings read alike, the source gives them in different places.
Assays:
[1] = biological target: T1, thromboxane synthase (Human Platelet Microsomes) (Homo sapiens, UniProt P24557); assay: Thromboxane synthase inhibition, human platelet microsomes; assay type: biochemical
T1 construct: Platelets were obtained from 320 ml of whole blood and resuspended in 5.0 ml of Krebs-Hensleit buffer; from tissue; host or cells: human platelets (microsomes, 110,000 g pellet)
T1 sequence (P24557 1-533): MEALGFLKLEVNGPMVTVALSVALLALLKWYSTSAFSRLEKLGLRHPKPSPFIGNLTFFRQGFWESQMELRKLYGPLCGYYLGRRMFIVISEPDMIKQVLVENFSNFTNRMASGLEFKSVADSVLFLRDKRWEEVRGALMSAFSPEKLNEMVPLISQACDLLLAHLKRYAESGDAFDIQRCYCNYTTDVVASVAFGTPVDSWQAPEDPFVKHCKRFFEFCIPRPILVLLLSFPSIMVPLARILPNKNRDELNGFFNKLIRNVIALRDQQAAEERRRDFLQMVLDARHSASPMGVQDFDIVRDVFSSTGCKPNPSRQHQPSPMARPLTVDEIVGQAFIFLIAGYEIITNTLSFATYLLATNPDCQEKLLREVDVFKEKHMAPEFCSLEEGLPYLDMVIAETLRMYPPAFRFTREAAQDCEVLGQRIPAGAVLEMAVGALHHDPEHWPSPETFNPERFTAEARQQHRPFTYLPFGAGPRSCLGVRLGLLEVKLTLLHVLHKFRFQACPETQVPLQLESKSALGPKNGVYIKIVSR
Procedure: (§1) In said assay procedure, microsomes from guinea pig lung or human platelets are added to an endoperoxide intermediate in prostaglandin biosynthesis and the inhibitor in phosphate buffer solution followed by incubation, extraction and determination of the extent of thromboxane synthase inhibition by TLC with radiochromatographic profile analysis.
(§2) Determination of Inhibition of Thromboxane Synthase Activity Isolation of Human Platelet Microsomes
Platelets were obtained from 320 ml of whole blood and resuspended in 5.0 ml of Krebs-Hensleit buffer (CA^+2 free). After three consecutive freeze-thawing cycles, homogenization and centrifugation at 12,000 g for 45 min., the 12,000 supernatant was recentrifuged at 110,000 g for 60 min. The resultant pellet was resuspended in phosphate buffer (0.5 ml, 0.1M, pH 7.5) and stored at -70° until use.
(§3) Low specific activity PGH2 (3.3 μCi/μmole) was obtained from Dr. W. E. M. Lands of the University of Michigan. PGH2 of higher specific activity (16.0 μCi/μmole) was purchased from Ran Biochemicals, Tel-Aviv, Israel.
(§4) The inhibitors tested were prepared as solutions (1-10 mg/ml) in 95% ethanol.
(§5) Assay for Thromboxane Synthase
(§6) To a 12×75 mm tube containing [1-^14 C] PGH2 (2 μg, 0.01 μCi or 0.05 μCi) and inhibitor (1 mM final assay concentration, in 10 μl of ethanol) in 225 μl of phosphate buffer (0.1M, pH 7.5), was added to an aliquot of guinea pig lung microsomes (25 μl, containing 400 μg protein) or an aliquot of human platelet microsomes (25 μl, containing .congruent.[…] protein). The solution was incubated in a 22° water bath for 2 min.; ether (1 ml) and citric acid (25 μMoles) were added, and the tube plunged into an acetone-dry ice bath. The ether extract was transferred to a 1.0 ml Reacti-vial, and the volume reduced under nitrogen to .congruent.50 μl.
(§7) The extract was applied to an I.T.L.C., type SG, glass fiber sheet (Gelman Instrument Co., Ann Arbor, Mich.) and developed in isooctane; methyl ethyl ketone: acetic acid (100:19:1 or 100:9:1) (19). The sheets were air dried and scanned using a Berthold LB 2760 Radiochromatographic Scanner. In certain cases, based on the radiochromatographic profile obtained, the sheets were cut, the appropriate regions placed in scintillation vials, 10 ml of LSC cocktail (Yorktown Research, S. Hackensack, NJ) added, and the relative cpm determined.

TXA2 Synthase = assay: TXA2 synthase IC50 as listed in Table I (enzyme source not stated); assay type: biochemical
Procedure: as §2, §5, §6, §7

[2] = system: isolated perfused rat pancreas; assay: Insulin secretion by isolated perfused rat pancreas; design: key: insulin AUC ratio: 1st glucose pulse / 2nd pulse with compound; details: 10 μM; 16.7 mM glucose; control 1.0 ± 0.04 (n = 5)
Procedure: Determination of Insulin-Secretory Activity in the Isolated Perfused Rat Pancreas
Pancreata were obtained from young adult female Charles River rats weighing from 200-300 g. The animals were anaesthesized with sodium pentobarbitol (45 mg/kg), injected intraperitoneally, and the pancreas with its intact vasculature was removed and connected to an extracorporeal perfusion apparatus.
The basic perfusion solution contained: 133 mM NaCl, 4.4 mM KCl, 2.5 mM MgSO4, 2.4 mM Ca gluconate, 1.5 mM KH2 PO4, 29.4 mM NaHCO3, 4% dextran and 0.2% bovine serum albumin and glucose as discussed below. The perfusion flow rate was kept constant at 4 ml/min. After a 15-20 min equilibration period, the experimental protocol was begun. The pancreatic effluent was collected in either one or four-minute fractions.
The perfusion was run in the following sequence:
30 min 16.7 mM glucose-internal control
30 min 16.7 mM glucose and test compound
5 min 20 mM arginine-to check pancreas viability
Test compounds were dissolved in 90% ethanol to a concentration of 25 mM and then diluted in the perfusion buffer to the desired concentration. The perfusion effluent was collected in one or four min fractions-the samples were checked immediately, aliquoted for submission to radioimmunoassay and stored at -20° C. until the time of assay. The radioimmunoassay of insulin was carried out by a back-titration method using a pure rat insulin standard.
To assess the inhibitory activity of the test compounds, an inhibition index was calculated. The inhibition index is derived by comparing the insulin secretion response from treated versus nontreated pancreas preparations. For each preparation, a ratio of insulin secretion was calculated from the area under the insulin secretion curve of the first pulse of 16.7 mM glucose divided by the area under the curve of the second pulse of 16.7 mM glucose containing compound.

[3] = biological target: T2, thromboxane synthase (Guinea Pig Lung Microsomes) (Cavia porcellus, UniProt H0UT36); assay: biochemical
T2 construct: The lungs were removed, freed of trachea and the majority of blood removed by rinsing the lungs with buffer; from tissue; host or cells: lungs of male guinea pigs (microsomes, 110,000 g pellet)
Procedure: as §1, with “analysis. […]” for “analysis.”
Isolation of Guinea Pig Lung Microsomes
Four male guinea pigs (.congruent.500 g each) were sacrificed by spinal dislocation. The lungs were removed, freed of trachea and the majority of blood removed by rinsing the lungs with buffer (0.1M phosphate pH 7.5) via the pulmonary artery. The lung tissue (18.3 g total wet wt.), was then minced, suspended in three volumes of buffer and homogenized using, initially, a Brinkmann polytron homogenizer and, finally, a glass-teflon tissue grinder. The homogenate was centrifuged at 12,000 g for 1 hr. and the resultant supernatant recentrifuged at 110,000 g for 1 hr. The 110,000 g pellet was taken up in 10 ml of buffer, divided into 5×2 ml aliquots and stored at -70° until use.
as §3, §4, §5, §6, §7

[4] = enzyme source H = Human Platelet Microsomes, read-out: IC50
[5] = IC50, enzyme source G = Guinea Pig Lung Microsomes
[6] = enzyme source G = Guinea Pig Lung Microsomes, read-out: IC50
[7] = IC50, enzyme source H = Human Platelet Microsomes

T2 sequence (H0UT36 entry or part of it): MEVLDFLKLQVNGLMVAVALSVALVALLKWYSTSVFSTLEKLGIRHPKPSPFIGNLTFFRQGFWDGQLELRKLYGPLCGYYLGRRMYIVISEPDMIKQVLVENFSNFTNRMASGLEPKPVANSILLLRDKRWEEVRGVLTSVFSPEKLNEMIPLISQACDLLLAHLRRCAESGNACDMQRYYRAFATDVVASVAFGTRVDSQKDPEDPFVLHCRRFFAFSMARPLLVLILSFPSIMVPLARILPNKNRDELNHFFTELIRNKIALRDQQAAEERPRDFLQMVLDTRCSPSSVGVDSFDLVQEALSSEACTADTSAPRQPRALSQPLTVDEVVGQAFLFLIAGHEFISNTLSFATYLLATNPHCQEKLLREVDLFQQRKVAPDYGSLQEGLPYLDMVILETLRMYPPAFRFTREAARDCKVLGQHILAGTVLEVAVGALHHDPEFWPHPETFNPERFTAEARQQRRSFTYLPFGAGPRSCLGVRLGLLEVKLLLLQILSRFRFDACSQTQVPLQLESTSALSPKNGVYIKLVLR

Structure (SMILES)	IC50 [1, 4]	IC50 [3, 6]	other results
CCCCn1ccnc1 [1-butyl-1H--imidazole]	~10 µM	–	–
OC[C@H]1O[C@@H](n2ccnc2)[C@H](O)[C@@H](O)[C@@H]1O [1-(beta-D-glucopyranosyl)-1H--imidazole]	10 to 100 µM	–	–
O=C1C(CC[S+]([O-])c2ccccc2)C(=O)N(c2ccccc2)N1c1ccccc1 (centres unmarked) [1,2-diphenyl-4-[2-[phenylsulfinyl]ethyl]-3,5-pyrazo-lidinedione, reference compound]	–	–	IC50 [3, 5]: ~1000 µM
Cn1ccnc1 [1-methyl-1H--imidazole]	–	> 1000 µM	–
CC(C)(C(=O)c1cccnc1)c1cccnc1 [2-methyl-1,2-di-3-pyridyl-1-propanone tartrate [1:2], reference compound]	> 100 µM and < 1000 µM	–	–
O=[N+]([O-])c1ccc(-n2ccnc2)c([N+](=O)[O-])c1 [1-[2,4-dinitrophenyl]1H--imidazole]	–	–	IC50 [3, 5]: > 100 µM and < 1000 µM
Nc1cncc(C(=O)O)c1 [5-amino-3-pyridinecarboxylic acid]	–	–	IC50 [3, 5]: > 1000 µM
CCn1ccnc1 [1-ethyl-1H--imidazole]	–	–	IC50 [3, 5]: > 1000 µM
COc1ccc(-n2ccnc2)cc1 [1-(4-methoxyphenyl)-1H--imidazole]	10 to 100 µM	–	–
O=[N+]([O-])c1ccc(-n2ccnc2)cc1 [1-(4-nitrophenyl)-1H--imidazole]	–	> 100 µM and < 1000 µM	–
O=[N+]([O-])c1c[nH]cn1 [1H-- 4-nitroimidazole]	–	> 1000 µM	–
CC(=O)n1ccnc1 [1-acetyl-1H--imidazole]	~1000 µM	–	–
COc1ccc2c(c1)c(CC(=O)O)c(C)n2C(=O)c1ccc(Cl)cc1 [1-(4-chlorobenzoyl)-5-methoxy-2-methyl-1H--indole-3-acetic acid, reference compound]	–	> 100 µM and < 1000 µM	–
CCOc1ccc(-n2ccnc2)cc1 [1-(4-ethoxyphenyl)-1H--imidazole]	~10 µM	–	–
Clc1ccccc1C(c1ccccc1)(c1ccccc1)n1ccnc1 [1-[(2-chlorophenyl)diphenylmethyl]-1H--imidazole, reference compound]	–	–	IC50 [1, 7]: 10 to 100 µM
c1ccc(Cn2ccnc2)cc1 [1-(phenylmethyl)-1H--imidazole]	–	–	IC50 [1, 7]: 10 to 100 µM

More lines, main results first:

IC50 [1, 4]	IC50 [3, 6]	Structure (SMILES)	other results
~1 µM	–	Oc1ccc(-n2ccnc2)cc1 [4-(1H--imidazol-1-yl)phenol, 4-(1H-imidazol-1-yl)phenol]	IC50 (TXA2 Synthase): 1 µM; Insulin Secretion Inhibition Index [2]: 2
1 to 10 µM	–	Oc1cccc(-n2ccnc2)c1 [3-(1H--imidazol-1-yl)phenol]	–
> 100 µM and < 1000 µM	–	CCOC(=O)C(=O)Cc1ccncn1 [Alpha-oxo-4-pyrimidinepropanoic acid ethyl ester]	–
~100 µM	–	O=C(NN=Cc1c(O)ccc2ccccc12)c1cccnc1 [[(2-hydroxy-1-naphthalenyl)methylene]hydrazide 3-pyridinecarboxylic acid]	–
–	> 1000 µM	Cc1ccc2c(-c3ccccc3)nc(=O)n(C(C)C)c2c1 [7-methyl-1-(1-methylethyl)-4-phenyl-2(1H)-quinazolinone, reference compound]	–
> 1000 µM	> 1000 µM	CC(C)Oc1ccc2oc3ccc(C(=O)O)cc3c(=O)c2c1 [7-(1-methylethoxy)-9-oxo-9H-xanthene-2-carboxylic acid]	–
–	> 100 µM and < 1000 µM	COC(=O)C=Cc1c[nH]cn1 [3-(1H--imidazole-4-yl)-2-propenoic acid methyl ester]	–
–	~100 µM	c1ccc(-c2ccncn2)cc1 [4-phenylpyrimidine]	–
–	> 100 µM and < 1000 µM	O=C1c2ccccc2S(=O)(=O)c2cc(-c3nnn[nH]3)ccc21 [3-(1H-tetrazol-5-yl)-9H-thioxathen-9-one s.s dioxide, reference compound]	–
> 100 µM and < 1000 µM	–	N[C@@H]1C(=O)N2C(C(=O)O)=C(CSc3ccncn3)CS[C@H]12 [[6R--(6α,7β)]-2-carboxy-8-oxo-3-[(4-pyrimidinylthio)-methyl]5-thia-1-azabicyclo-[4.2.0]oct-2-en-7-aminum hydroxide inner salt]	–

From US4731363A, “Thromboxane synthase inhibitors as insulin lowering agents and antiobesity agents” (priority 1986, dated 1988)
